In PMC6527222 (PLoS ONE, 2019):
“Also recorded” adds a separate entry of the source. Read-outs that look alike come from different tables or passages of the source.

Columns and labels:
[1] = system: hairless mice (UV-induced skin thickening); assay: Eight dose UV exposure, bi-folded epidermal thickness in hairless wild type and β2-AR knockout mice; assay type: in vivo, mouse; conditions: 5 μM in 200 μL acetone topically every other day, 200 mJ/cm^2 UV, eight irradiations
Description: The Western University of Health Sciences’ Institutional Animal Care and Use Committee (WesternU IACUC) approved all animal studies prior to initiating any experiments. The animal studies were carried out under WesternU IACUC recommendations and guidelines, which follow NIH guidelines. Mice had access to water and food ad libitum and housed on a 12-hour light/dark cycle with 35% humidity. Homozygous β1-AR and β2-AR null mice (Adrb1^tm1Bkk Adrb2^tm1Bkk/J Stock Number 003810) were purchased from Jackson Laboratory (Bar Harbor, ME); the double knockout mice were characterized previously. The double knockout mice were bred with C57BL/6J from Jackson Lab to generate a heterozygous F1 generation. The F1 generation was bred together to generate the F2 generation of which 1/16th of the offspring were a β2-AR knockout mouse. SKH-1 mice purchased from Charles River (Wilmington, MA) were bred with the β2-AR knockout mice generating a second heterozygous F1 generation. The F1 generation was bred together to generate the F2 generation of which 1/16th of the offspring were a hairless β2-AR knockout mouse. The F2 generation was backcrossed with a new batch of SKH-1 from Charles River to generate mice more efficiently. The mice used in this study are 75% SKH-1 and 25% mixed background. Following experimentation, and to cull the unused mice in a colony, mice were euthanized via exposure to 32% Isoflurane followed by cervical dislocation to ensure euthanization prior to disposal.
The first two weeks were pretreatment and the second two weeks were during the UV irradiation procedure, but drugs were applied the day after UV exposure to avoid sunscreen effects. All groups involved with UV were irradiated with 200 mJ/cm^2 dose of UV every other day for a total of eight irradiations. Bi-folded epidermal thickness was measured using a digital caliper before drug treatment on non-radiation days. Three skin thickness measurements were taken along the left, middle, and right dorsal epidermal layer, and the mean thickness was recorded for each mouse.

JB6 P+ cells [2] = assay: SRB cytotoxicity assay; assay type: cell-based, mouse; conditions: for SRB Assay Log IΔ2*PSD: NT = no toxicity at any concentration tested; for Toxicity label: Toxic = no 10-fold difference between IΔ2*PSD from soft agar and SRB assays
Description: 96-well plates were seeded with 3x10^3 JB6 P+ cells per well and allowed to attach overnight. […] Cell viability was determined using Sulforhodamine B (SRB) assay from Sigma-Aldrich according to the manufacturer’s protocol. Cellular protein content was measured using a Bio-Tek μQuant plate reader with KCJunior software.
Concentration-response curves were normalized so that the EGF positive control on each 96-well plate was set to 100% and the control wells on each plate were set to 0%. Toxicity assays (SRB and MTS) were normalized so that the control on each plate represented 100% viability. Normalization allowed for comparison of data over a range of JB6 P+ cell cultures, passages, and experimental time for the shRNA studies, as well as control for variation in the EGF response, and importantly allowed for a direct comparison to all concentration-response experiments including the toxicity assays. […] All group sizes were determined via previous studies to provide statistically meaningful data. In the soft agar assays, key results were repeated with different JB6 P+ cells to confirm the results. Similarly, the shRNA studies were conducted with three independent concentration-response curves with different JB6 P+ cell stocks. […] For two sample comparisons a t-test was utilized, and when comparing multiple samples a One-, Two-, or Three-Factor ANOVA followed by Tukey-Kramer post hoc test was utilized depending on the data. For all tests, statistical difference was donated when p < 0.05.
The IΔ2*PSD is expressed in x-axis units (log [M]) as is an IC50 and it represents the first concentration where it is expected to observe a statistical decrease in the measured signal.
Using the formula provided by GraphPad Prism or a straight line for the point-to-point graphs, the X-axis value for point Y was determined. The error is ascribed to this measurement via adding and subtracting the pooled standard deviation (PSD) to/from point Y generating point Y ± PSD. The two new points were then transformed to the X-axis units as was done for point Y creating an asymmetric error in sigmoidal plots. When the error was asymmetric, the larger error value was chosen to err on the conservative side. See S1 Fig for a pictoral explination of the method. The data is presented as IΔ2*PSD ± error.

β2-AR = system: β2-AR; design: method as in as printed in each cell (43-46, 48-54, 56-58); conditions: as described in the references; ref (43-46, 48-54, 56-58); cited from earlier work
JB6 P+ cells [3] = assay: Anchorage-independent growth assay in soft agar (EGF-induced JB6 P+ colony formation); assay type: cell-based, mouse; conditions: for minimal effective concentration / IC50 / Emax: Mus musculus; for minimal effective concentration / IC50 / effect on EGF-mediated transformation of JB6 P+ cells, words: 10 ng/mL EGF; for minimal effective concentration: first concentration with expected statistical decrease, read-out: Soft Agar Assay Log IΔ2*PSD (converted); for Emax: efficacy of inhibition of colony formation, reported if non-toxic
Description: Ten ng/mL EGF was used to promote the anchorage-independent growth of JB6 cells. […] Plates were incubated at 37°C, 5% CO2 for 14 days. Colonies with greater than ten cells were counted manually under a microscope. […] Normalization allowed for comparison of data over a range of JB6 P+ cell cultures, passages, and experimental time for the shRNA studies, as well as control for variation in the EGF response, and importantly allowed for a direct comparison to all concentration-response experiments including the toxicity assays. […] All group sizes were determined via previous studies to provide statistically meaningful data. In the soft agar assays, key results were repeated with different JB6 P+ cells to confirm the results. Similarly, the shRNA studies were conducted with three independent concentration-response curves with different JB6 P+ cell stocks. […] For two sample comparisons a t-test was utilized, and when comparing multiple samples a One-, Two-, or Three-Factor ANOVA followed by Tukey-Kramer post hoc test was utilized depending on the data. For all tests, statistical difference was donated when p < 0.05. […] The I[…]*PSD is expressed in x-axis units (log [M]) as is an IC50 and it represents the first concentration where it is expected to observe a statistical decrease in the measured signal. […] Using the formula provided by GraphPad Prism or a straight line for the point-to-point graphs, the X-axis value for point Y was determined. The error is ascribed to this measurement via adding and subtracting the pooled standard deviation (PSD) to/from point Y generating point Y ± PSD. The two new points were then transformed to the X-axis units as was done for point Y creating an asymmetric error in sigmoidal plots. When the error was asymmetric, the larger error value was chosen to err on the conservative side. See S1 Fig for a pictoral explination of the method. The data is presented as I[…]*PSD ± error.

JB6 P+ cells [4] = conditions: cited from earlier work
α1D-AR = conditions: read-out: Kd towards the α1D-AR; cited from earlier work
[5] = 336 h, 14 days, negative log value, read-out: Soft Agar Assay Log IC50 (converted)
[6] = soft agar, read-out: IC50, inhibition of EGF-mediated transformation

Row | Structure (SMILES) | SRB Assay Log IΔ2*PSD (JB6 P+ cells [2]; 72 hr) | Toxicity label (JB6 P+ cells [2]) | Pharmacological property at β2-AR (β2-AR) | minimal effective concentration (JB6 P+ cells [3]; 336 h, 14 days) | IC50 (JB6 P+ cells [3]; [5]) | Emax (JB6 P+ cells [3]) | also measured
1 | Oc1cccc2[nH]c3ccccc3c12 [4-OHC, 4-Hydroxycarbazole] |  |  |  |  |  |  | effect on UV-induced skin thickening, words ([1]; wild type mice): little effect in wild type mice; effect on UV-induced skin thickening, words ([1]; β2-AR knockout mice): no effect in knockout mice
2 | CCCC(=O)Nc1ccc(OCC(O)CNC(C)C)c(C(C)=O)c1 (stereo not shown) [Acebutolol] | -3.39 ± 0.70 log [M] | Toxic | Partial agonist [56] | 49 µM |  |  | 
3 | C=CCc1ccccc1OCC(O)CNC(C)C (stereo not shown) [Alprenolol] | -4.95 ± 0.06 log [M] |  | Biased agonist/ activates ERK [43] |  | 0.427 µM | 93.8 ± 2.88% | 
4 | CC(C)NCC(O)COc1ccc(CC(N)=O)cc1 (stereo not shown) [Atenolol] |  |  | Inverse agonist for cAMP [50] |  |  | 47.9 ± 7.81% | Soft Agar Assay Log IC50 (JB6 P+ cells [4]; 10 ng/mL EGF, negative log value): -5.04 ± 0.27 [19] log [M]; effect on EGF-mediated transformation of JB6 P+ cells, words (JB6 P+ cells [4]; previous data): less potent and displayed partial efficacy; IC50 (JB6 P+ cells [4]; previously published atenolol, read-out: IC50, inhibition of EGF-mediated transformation): 9.19 µM
5 | Cc1ccc(Cl)c(OCC(O)CNC(C)(C)C)c1 (stereo not shown) [Bupranolol] | -4.80 ± 0.05 log [M] | Toxic | Antagonist, not specified |  |  |  | 
6 | CC(C)(C)NCC(O)COc1cccc2[nH]c(=O)[nH]c12 (stereo not shown) [CGP 12177] | -4.46 ± 0.19 log [M] | Toxic | Partial agonist [53] | 7.59 µM |  |  | effect on EGF-mediated transformation of JB6 P+ cells, words (JB6 P+ cells [3]; soft agar): do not prevent EGF-induced transformation of JB6 P+ cells
7 | CC(C)NCC(O)COc1cccc2[nH]c3ccccc3c12 (stereo not shown) [Carazolol] | -5.00 ± 0.14 log [M] | Toxic |  | 7.41 µM |  |  | 
8 | Cl.O=C1c2ccccc2CCC1CNCCc1ccc(O)cc1 (stereo not drawn) [HEAT HCl, 2-{[β-(4-Hydroxyphenyl)ethyl]aminomethyl}-1-tetralone hydrochloride] | -5.99 ± 0.03 log [M] |  |  | 0.145 µM |  |  | toxicity in SRB assay, words (JB6 P+ cells [2]; 72 hr): toxicity at 10 μM; Kd (α1D-AR): 0.000361 ± 8e-05 µM; effect on EGF-mediated transformation of JB6 P+ cells, words (JB6 P+ cells [3]; soft agar): only inhibited colony formation at 1 and 10 μM; also recorded: do not prevent EGF-induced transformation of JB6 P+ cells
9 | Cc1ccc(OCC(O)C(C)NC(C)C)c2c1CCC2 (stereo not shown) [ICI 118,551] | -3.59 ± 0.50 log [M] | Toxic | Inverse agonist for cAMP that recruits ±-arr [29, 49] | 3.39 µM | 4.47 µM |  | 
10 | CC(C)NCC(O)c1ccc(O)c(O)c1 (stereo not shown) [Isoproterenol] | -4.77 ± 0.16 log [M] | Toxic | Full equipotent agonist [44, 58] | 24.5 µM |  |  | effect on EGF-mediated transformation of JB6 P+ cells, words (JB6 P+ cells [3]; soft agar): failed to increase EGF-mediated transformation of JB6 P+ cells
11 | CC(CCc1ccccc1)NCC(O)c1ccc(O)c(C(N)=O)c1 (stereo not shown) [Labetalol] |  |  | Partial agonist for cAMP and full agonist for ERK [44, 45] |  | 0.501 µM | 90.3 ± 8.48% | 
12 | COCCc1ccc(OCC(O)CNC(C)C)cc1 (stereo not shown) [Metoprolol] | -4.52 ± 0.20 log [M] | Toxic | Inverse agonist for cAMP [51] | 24.5 µM |  |  | 
13 | CC(C)(C)NCC(O)COc1cccc2c1CC(O)C(O)C2 (stereo not shown) [Nadolol] |  |  | Inverse agonist for cAMP [44, 57] | 4.68 µM |  |  | effect on EGF-mediated transformation of JB6 P+ cells, words (JB6 P+ cells [3]; soft agar): do not prevent EGF-induced transformation of JB6 P+ cells
14 | CC(C)NCC(O)c1ccc2ccccc2c1 (stereo not shown) [Pronethalol] | -4.86 ± 0.23 log [M] |  | Inverse agonist for cAMP [48] |  | 2.51 µM | 100% | IC50 (JB6 P+ cells [3]; [6]): 2.53 µM
15 | CC(C)NCC(O)COc1cccc2ccccc12 (stereo not shown) [Propranolol] | -4.20 ± 0.11 log [M] |  | Inverse agonist for cAMP that recruits ±-arr [29, 51] | 5.5 µM |  |  | 
16 | CC(C)(C)NC[C@H](O)COc1nsnc1N1CCOCC1 [Timolol] | -4.22 ± 0.34 log [M] |  | Inverse agonist for cAMP [48] |  | 3.31 µM | 100% | IC50 (JB6 P+ cells [3]; [6]): 3.31 µM
